In test [1] the target is Peroxisome proliferator-activated receptor gamma/Nuclear receptor coactivator 1 (Homo sapiens, UniProt P37231). The test can be described thus: TR-FRET dose response biochemical High Throughput Screening assay for agonists of the steroid receptor coactivator 1 (SRC-1) recruitment by the peroxisome proliferator-activated receptor gamma (PPAR gamma): non-selective agonists. [Related pubchem assays (depositor defined):AID1300, AID1808, AID504735, AID631]. It counts as protein assay. In general terms: In TR-FRET formats the signal depends on donor and acceptor labels being close together.
Peroxisome proliferator-activated receptor gamma/Nuclear receptor coactivator 1, sequence (P37231 whole entry): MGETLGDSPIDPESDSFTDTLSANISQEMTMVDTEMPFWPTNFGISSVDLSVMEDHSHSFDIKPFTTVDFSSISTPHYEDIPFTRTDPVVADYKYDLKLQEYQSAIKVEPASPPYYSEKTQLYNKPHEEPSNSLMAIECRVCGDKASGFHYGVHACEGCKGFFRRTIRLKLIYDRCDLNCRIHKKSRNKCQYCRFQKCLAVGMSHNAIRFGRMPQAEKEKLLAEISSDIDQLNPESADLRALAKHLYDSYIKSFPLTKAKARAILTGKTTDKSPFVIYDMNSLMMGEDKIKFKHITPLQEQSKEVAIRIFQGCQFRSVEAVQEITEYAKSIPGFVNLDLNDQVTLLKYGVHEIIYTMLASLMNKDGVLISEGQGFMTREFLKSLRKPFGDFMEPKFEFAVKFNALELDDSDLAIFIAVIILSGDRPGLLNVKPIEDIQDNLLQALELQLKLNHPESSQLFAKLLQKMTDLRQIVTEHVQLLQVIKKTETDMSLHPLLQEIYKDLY
Peroxisome proliferator-activated receptor gamma/Nuclear receptor coactivator 1, sequence (Q15788 whole entry, further chain): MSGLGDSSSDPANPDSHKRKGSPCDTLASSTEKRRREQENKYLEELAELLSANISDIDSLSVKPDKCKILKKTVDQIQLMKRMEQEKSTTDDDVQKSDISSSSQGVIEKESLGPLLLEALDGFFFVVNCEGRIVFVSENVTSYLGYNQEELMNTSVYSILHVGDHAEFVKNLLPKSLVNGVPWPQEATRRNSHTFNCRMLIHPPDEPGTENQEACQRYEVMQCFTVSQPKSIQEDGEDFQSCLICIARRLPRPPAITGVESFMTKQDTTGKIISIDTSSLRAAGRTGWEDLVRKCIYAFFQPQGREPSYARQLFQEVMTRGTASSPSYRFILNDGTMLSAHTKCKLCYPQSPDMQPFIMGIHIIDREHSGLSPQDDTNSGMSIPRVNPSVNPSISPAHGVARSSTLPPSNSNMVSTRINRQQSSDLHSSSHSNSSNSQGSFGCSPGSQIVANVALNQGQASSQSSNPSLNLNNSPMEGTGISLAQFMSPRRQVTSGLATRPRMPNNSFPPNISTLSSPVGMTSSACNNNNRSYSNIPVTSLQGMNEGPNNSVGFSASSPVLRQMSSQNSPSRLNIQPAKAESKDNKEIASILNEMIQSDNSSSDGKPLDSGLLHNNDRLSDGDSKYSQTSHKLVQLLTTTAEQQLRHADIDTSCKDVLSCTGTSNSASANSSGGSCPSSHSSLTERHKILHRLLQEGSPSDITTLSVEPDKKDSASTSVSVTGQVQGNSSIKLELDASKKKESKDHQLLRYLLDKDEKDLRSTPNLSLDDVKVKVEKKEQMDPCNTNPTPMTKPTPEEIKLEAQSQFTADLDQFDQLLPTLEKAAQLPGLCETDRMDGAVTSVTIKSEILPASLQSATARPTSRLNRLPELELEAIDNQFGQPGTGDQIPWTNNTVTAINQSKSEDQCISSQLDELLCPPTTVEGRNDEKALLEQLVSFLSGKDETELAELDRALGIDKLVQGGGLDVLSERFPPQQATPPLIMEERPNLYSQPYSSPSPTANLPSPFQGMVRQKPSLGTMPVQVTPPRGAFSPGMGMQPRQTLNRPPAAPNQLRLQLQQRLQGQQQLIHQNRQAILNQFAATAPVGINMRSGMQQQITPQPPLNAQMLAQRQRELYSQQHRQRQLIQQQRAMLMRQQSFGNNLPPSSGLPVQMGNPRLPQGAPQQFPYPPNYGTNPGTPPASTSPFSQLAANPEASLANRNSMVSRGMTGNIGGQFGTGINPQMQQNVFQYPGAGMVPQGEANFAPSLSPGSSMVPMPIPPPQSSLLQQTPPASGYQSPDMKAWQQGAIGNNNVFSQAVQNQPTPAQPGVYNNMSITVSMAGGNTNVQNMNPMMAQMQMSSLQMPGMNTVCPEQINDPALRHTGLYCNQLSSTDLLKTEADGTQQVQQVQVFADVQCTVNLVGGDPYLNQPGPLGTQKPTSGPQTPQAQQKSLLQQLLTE

In test [2] the target is Peroxisome proliferator-activated receptor gamma/Nuclear receptor coactivator 3 (Homo sapiens, UniProt P37231). The test can be described thus: TR-FRET dose response biochemical High Throughput Screening assay for agonists of the steroid receptor coactivator 3 (SRC-3) recruitment by the peroxisome proliferator-activated receptor gamma (PPAR gamma): non-selective agonists. [Related pubchem assays: 1301 (Confirmation screen.), 1048 (Primary screen.)]. The format is functional.
Peroxisome proliferator-activated receptor gamma/Nuclear receptor coactivator 3, sequence (P37231 whole entry): as the sequence (P37231 whole entry) above
Peroxisome proliferator-activated receptor gamma/Nuclear receptor coactivator 3, sequence (Q9Y6Q9 whole entry, further chain): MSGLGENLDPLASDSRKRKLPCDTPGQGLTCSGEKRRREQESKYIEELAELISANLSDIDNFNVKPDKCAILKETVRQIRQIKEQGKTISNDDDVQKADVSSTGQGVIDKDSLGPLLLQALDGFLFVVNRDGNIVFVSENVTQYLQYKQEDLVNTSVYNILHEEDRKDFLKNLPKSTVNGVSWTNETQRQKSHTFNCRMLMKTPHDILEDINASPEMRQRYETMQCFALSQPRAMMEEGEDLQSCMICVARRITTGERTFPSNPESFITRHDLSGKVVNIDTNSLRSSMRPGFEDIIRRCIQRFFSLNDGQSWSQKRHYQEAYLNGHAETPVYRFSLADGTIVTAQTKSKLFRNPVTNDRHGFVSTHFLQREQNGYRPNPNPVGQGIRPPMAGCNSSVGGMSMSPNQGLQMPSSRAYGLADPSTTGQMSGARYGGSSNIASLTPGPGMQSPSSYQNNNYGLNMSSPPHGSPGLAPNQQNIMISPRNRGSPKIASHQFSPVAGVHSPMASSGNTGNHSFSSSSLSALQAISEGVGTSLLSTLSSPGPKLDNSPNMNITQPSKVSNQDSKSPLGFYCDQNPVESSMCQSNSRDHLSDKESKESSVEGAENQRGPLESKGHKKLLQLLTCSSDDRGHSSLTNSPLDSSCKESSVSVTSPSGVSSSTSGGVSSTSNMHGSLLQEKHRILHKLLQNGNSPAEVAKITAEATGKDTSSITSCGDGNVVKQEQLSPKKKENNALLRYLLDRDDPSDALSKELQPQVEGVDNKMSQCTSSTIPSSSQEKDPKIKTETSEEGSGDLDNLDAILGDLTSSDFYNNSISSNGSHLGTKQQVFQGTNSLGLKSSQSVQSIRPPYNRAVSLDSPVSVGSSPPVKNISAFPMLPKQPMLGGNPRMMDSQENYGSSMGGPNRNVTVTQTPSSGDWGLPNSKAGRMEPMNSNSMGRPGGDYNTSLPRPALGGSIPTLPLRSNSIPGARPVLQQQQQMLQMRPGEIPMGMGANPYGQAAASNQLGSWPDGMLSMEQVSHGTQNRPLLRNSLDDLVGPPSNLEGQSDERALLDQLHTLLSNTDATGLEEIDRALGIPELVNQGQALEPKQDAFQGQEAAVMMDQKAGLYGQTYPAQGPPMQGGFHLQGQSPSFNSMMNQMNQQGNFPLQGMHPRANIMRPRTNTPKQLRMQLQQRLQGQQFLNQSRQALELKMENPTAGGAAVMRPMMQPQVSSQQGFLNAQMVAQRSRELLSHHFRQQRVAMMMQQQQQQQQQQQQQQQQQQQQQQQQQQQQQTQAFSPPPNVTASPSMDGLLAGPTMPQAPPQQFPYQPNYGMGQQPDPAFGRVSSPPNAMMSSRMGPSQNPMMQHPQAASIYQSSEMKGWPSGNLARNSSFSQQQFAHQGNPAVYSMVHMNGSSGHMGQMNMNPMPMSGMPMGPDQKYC

Test [3] addresses Large T antigen (Simian virus 40, UniProt P03070). It counts as functional, Betapolyomavirus macacae.
For test [4], the target named is Peroxisome proliferator-activated receptor gamma/Nuclear receptor coactivator 2 (Homo sapiens, UniProt P37231). The test can be described thus: TR-FRET dose response biochemical High Throughput Screening assay for agonists of the steroid receptor coactivator 2 (SRC-2) recruitment by the peroxisome proliferator-activated receptor gamma (PPAR gamma): non-selective agonists. [Related pubchem assays: 1297, 1032 ]. It counts as functional.

Test [5] can be described thus: protection from phage-mediated lysis, alamar blue read-out – E. coli UTI89, K1F phage, bacterial capsule biogenesis inhibitors (AID 488966). The format is functional. On the technique in general: The colour change of resazurin is a common sign of viable cells or microbes.
The target in test [6] is T1, Replicative DNA helicase DnaB (Mycobacterium tuberculosis, UniProt P9WMR3).
T1 sequence (P9WMR3 whole entry): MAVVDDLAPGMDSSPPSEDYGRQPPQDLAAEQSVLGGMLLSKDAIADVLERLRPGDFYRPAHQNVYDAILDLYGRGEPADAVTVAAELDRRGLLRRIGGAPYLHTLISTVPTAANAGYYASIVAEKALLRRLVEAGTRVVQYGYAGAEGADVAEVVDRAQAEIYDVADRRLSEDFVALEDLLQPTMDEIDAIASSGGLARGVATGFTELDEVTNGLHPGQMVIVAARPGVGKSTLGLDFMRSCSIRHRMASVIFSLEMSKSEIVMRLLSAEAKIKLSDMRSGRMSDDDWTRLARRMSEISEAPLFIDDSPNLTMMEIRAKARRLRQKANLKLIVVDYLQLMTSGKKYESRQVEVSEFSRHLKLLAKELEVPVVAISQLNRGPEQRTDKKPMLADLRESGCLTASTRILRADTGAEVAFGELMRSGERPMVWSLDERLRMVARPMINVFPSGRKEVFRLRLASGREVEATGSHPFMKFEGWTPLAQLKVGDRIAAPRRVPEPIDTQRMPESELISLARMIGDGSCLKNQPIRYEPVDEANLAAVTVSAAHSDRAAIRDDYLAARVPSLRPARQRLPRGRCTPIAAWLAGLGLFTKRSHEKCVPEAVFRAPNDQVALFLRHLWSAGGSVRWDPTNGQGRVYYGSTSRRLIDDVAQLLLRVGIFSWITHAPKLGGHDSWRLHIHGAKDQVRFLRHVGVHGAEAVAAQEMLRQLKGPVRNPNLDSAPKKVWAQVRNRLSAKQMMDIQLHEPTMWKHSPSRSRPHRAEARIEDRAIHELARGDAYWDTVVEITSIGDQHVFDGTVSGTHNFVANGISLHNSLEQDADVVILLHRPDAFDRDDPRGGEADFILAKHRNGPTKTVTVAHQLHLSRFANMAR
The test can be described thus: DnaB intein splicing inhibitors, dose response, biochemical, cell-free fluorescence (AID 449749). The format is functional.

Test [7] has as its target T2, Endoribonuclease toxin MazF (Escherichia coli K-12, UniProt P0AE70).
T2 sequence (P0AE70 whole entry): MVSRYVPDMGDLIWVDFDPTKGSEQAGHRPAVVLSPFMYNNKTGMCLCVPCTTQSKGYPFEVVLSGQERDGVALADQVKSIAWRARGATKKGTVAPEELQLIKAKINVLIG
The test can be described thus: activation of MazEF endoribonuclease cleavage – biochemical, fluorescence, single-stranded RNA substrate, uHTS hits, dose response (AID 588481). The format is functional.

Test [8] deals with Vero. The test can be described thus: viability of Vero cells under compound – cytotoxicity control for flavivirus capping enzyme inhibitors (AID 588742). It counts as functional. As to conditions: Chlorocebus sabaeus.
For test [9], the target named is T3, Protein RecA (Mycobacterium tuberculosis, UniProt P9WHJ3).
T3 sequence (P9WHJ3 whole entry): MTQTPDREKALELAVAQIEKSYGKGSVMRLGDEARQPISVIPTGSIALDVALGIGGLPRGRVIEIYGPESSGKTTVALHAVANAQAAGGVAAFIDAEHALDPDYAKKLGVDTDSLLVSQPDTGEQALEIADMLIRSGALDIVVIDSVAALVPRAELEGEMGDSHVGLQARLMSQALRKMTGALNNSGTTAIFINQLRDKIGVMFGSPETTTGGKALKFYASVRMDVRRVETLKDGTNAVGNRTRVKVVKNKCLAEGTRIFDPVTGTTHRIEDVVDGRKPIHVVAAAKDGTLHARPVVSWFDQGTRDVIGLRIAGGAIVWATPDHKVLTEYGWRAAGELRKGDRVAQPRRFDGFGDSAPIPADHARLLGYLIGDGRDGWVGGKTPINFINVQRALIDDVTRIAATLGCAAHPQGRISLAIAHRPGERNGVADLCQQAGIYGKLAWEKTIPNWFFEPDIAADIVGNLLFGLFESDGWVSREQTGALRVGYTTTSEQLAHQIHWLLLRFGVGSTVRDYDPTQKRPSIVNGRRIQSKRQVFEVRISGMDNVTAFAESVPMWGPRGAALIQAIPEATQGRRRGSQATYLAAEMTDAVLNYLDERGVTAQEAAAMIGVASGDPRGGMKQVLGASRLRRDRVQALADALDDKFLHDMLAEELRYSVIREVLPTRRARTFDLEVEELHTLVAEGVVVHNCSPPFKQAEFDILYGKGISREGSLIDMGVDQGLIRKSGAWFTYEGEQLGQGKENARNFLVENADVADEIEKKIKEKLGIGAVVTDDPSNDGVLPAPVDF
The test can be described thus: Fluorescence Cell-Free Homogeneous Dose Retest to Identify Inhibitors of RecA-Intein Splicing Activity. [Related pubchem assays (depositor defined):AID2097, AID2223, AID489010, AID492950]. The format is functional.

For test [10], the target named is T2, Endoribonuclease toxin MazF. The test can be described thus: substrate-only fluorescence increase artefacts – biochemical, single-stranded RNase substrate, counter-screen for MazEF activator project, dose response (AID 588502). It counts as functional. (In general: Counterscreens check selectivity or assay interference.)
The test system of test [11] is BJ. The test can be described thus: BJ-TERT fibroblast viability loss – cell-based, RAS-independent, luminescence, dose response (AID 1933). It counts as functional. The conditions noted are these: Homo sapiens.
Test [12] has as its system BJ. The test can be described thus: cells. The format is functional, cell-based. The conditions noted are these: Homo sapiens.
Test [13] deals with T4, Mannose-6-phosphate isomerase (Homo sapiens, UniProt P34949).
T4 sequence (P34949 whole entry): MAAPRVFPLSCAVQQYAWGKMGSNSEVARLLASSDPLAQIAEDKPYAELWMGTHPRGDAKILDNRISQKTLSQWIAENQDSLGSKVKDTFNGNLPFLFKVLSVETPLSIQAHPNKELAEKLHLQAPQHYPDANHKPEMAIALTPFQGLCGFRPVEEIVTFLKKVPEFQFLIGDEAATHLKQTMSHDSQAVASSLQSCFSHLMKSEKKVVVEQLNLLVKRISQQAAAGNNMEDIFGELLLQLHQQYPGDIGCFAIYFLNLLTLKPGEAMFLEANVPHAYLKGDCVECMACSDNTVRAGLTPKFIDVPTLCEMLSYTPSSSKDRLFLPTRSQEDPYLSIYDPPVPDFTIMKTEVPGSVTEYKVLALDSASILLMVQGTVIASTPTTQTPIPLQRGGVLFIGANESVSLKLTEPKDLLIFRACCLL
The test can be described thus: MPI enzyme activity inhibition – biochemical, fluorescence intensity, coupled assay, primary screen (AID 1209).

In test [14] the target is Bifunctional protein GlmU (Mycobacterium tuberculosis, UniProt P9WMN3). The test can be described thus: Inhibitors of Mycobacterial Glucosamine-1-phosphate acetyl transferase (GlmU). Secondary screen. Details: species or system Mycobacterium tuberculosis H37Rv.
Bifunctional protein GlmU, sequence (P9WMN3 whole entry): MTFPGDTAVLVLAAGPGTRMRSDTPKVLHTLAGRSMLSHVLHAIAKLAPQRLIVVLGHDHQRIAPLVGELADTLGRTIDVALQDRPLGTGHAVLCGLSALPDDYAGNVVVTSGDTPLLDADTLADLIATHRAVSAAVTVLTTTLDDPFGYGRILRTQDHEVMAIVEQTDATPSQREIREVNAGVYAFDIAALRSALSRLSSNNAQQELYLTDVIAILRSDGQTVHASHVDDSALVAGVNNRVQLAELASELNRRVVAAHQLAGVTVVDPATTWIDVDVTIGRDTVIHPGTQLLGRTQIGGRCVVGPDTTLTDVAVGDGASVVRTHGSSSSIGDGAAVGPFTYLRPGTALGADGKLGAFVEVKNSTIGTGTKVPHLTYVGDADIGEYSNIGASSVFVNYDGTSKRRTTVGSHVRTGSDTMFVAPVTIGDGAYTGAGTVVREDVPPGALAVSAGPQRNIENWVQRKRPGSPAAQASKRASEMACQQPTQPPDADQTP
In test [15] the test system is J774.A1. The test can be described thus: Confirmation of image-based Screening Assay for Inhibitors of Phagocytosis. [Related pubchem assays (depositor defined):AID1029, AID1643]. The format is functional, cell-based. The conditions noted are these: Mus musculus.
The test system of test [16] is BJ. The test can be described thus: BJ-TERT-LT-ST fibroblast viability loss – cell-based, RAS-independent, luminescence, dose response (AID 1935).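 Further: BJ fibroblasts immortalized with TERT plus LT and ST oncogenes.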 The conditions noted are these: Homo sapiens. The format is functional.
A short description of test [17]: DRD fibroblast viability loss – cell-based, non-viral oncogenic, luminescence, dose response (AID 1934). The format is functional. As to conditions: Homo sapiens.
Test [18] has as its target T4, Mannose-6-phosphate isomerase. The test can be described thus: MPI inhibition at elevated mannose 6-phosphate – biochemical, fluorescence intensity, high mannose 6-phosphate, primary screen (AID 1220).
Test [19] addresses X-box-binding protein 1 (Homo sapiens, UniProt P17861). It counts as functional, Cricetulus griseus.
The target in test [20] is Heat shock protein HSP 90-alpha (Homo sapiens, UniProt P07900). It counts as functional, organism-based.
The subject of test [21] is BJ. The test can be described thus: growth inhibition of engineered Ras-driven BJ cells – cell-based, alamar blue fluorescence, cherrypicked samples, dose response (AID 2631).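 Further: confirmatory dose-response assay in RAS-dependent BJ fibroblasts engineered with TERT, LT and ST, with cytotoxicity read by fluorescence.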 The conditions noted are these: Homo sapiens. It counts as functional.
Test [22] in a line: Fluorescence-based cell-based high throughput dose response assay for inhibitors of the interaction of nucleotide-binding oligomerization domain containing 2 (NOD2) and the receptor-interacting serine-threonine kinase 2 (RIPK2). The conditions noted are these: Homo sapiens. It counts as functional.

We go through 2 compounds from ChEMBL document CHEMBL1201862, “PubChem BioAssay data set” (2004).

Activity calls are given as the source filed them.
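Wherever Absolute IC50 (XBP1) is given: confirmatory dose-response counter-screen serving a CHOP assay.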

X-box-binding protein 1, sequence (P17861 whole entry): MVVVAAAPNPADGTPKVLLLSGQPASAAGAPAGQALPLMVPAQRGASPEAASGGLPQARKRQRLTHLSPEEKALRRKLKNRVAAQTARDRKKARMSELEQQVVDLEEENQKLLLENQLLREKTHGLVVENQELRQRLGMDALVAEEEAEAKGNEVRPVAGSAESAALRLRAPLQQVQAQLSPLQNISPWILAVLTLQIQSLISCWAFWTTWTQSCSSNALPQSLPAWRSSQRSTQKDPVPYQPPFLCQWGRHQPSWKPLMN

As a reminder, the EC50 is the concentration at which the effect is half-maximal. What is called IC50 is the midpoint of a concentration-inhibition curve. A word on the AC50: it is the concentration at which the activity in the assay is half-maximal. One may read the CC50 as the concentration that lowers cell viability or growth by half. Consider `CC(=O)Oc1c(/C=C(\C#N)C(N)=O)[nH]c2ccccc12`, for which the EC50 in [1] was 20.5 µM (inactive); in [2], > 79.4 µM (not active); in test [4], 22.6 µM (not active); in [7] it was > 99 µM (inactive); in [9], 0.0314 µM (active); in test [10], > 99 µM (inactive). The IC50 in test [3] was 22.8 µM (active); in [5], > 300 µM (active). Also, the AC50 in [6] is > 380 µM (inconclusive). Besides, the CC50 in test [8] is > 40 µM (active).

Turning to `CC1=CC(=O)C=C(C)C1=NOS(=O)(=O)c1ccccc1`, the EC50 is 4.5 µM (active) in [11]; 4.78 µM (active) in test [12]; 5.67 µM (inconclusive) in test [16]; 7.26 µM (active) in test [17]; 1.35 µM (inconclusive) in test [21]. The IC50 is 14.4 µM (active) in test [13]; 165 µM (active) in test [14]; 0.47 µM (active) in test [15]; 47.3 µM (active) in test [18]; 5.52 µM (active) in [22]. For the same compound, the “Absolute IC50 (XBP1)” value in [19] is 10 µM. In addition, in [20], the AC50 was 0.928 µM (active).
